Patent publication US9561231B2 (AbbVie Inc., priority 2012, dated 2017)
Like-named read-outs stand apart in the source and are kept apart here.

Assays:
[1] = biological target: T1, first (BD1: amino acids K57-E168) bromodomain of BRD4 (Homo sapiens, UniProt O60885); test: TR-FRET bromodomain binding assay, BRD4 BD1; conditions: Ki calculated from IC50, probe Kd and probe concentration, read-out: TR-FRET Binding Ki: BRD4 (BDI_K57-E168)
T1 construct: His-tagged first (BD1: amino acids K57-E168)
In short: (§1)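 Displacement of an Alexa647-labelled BET-inhibitor from His-tagged BD1 (K57-E168) or BD2 ([…]) measured by TR-FRET in pH 6.0 sodium phosphate buffer with NaCl, EDTA, Triton X-100 and DTT.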

[2] = biological target: T2, second (BD2: amino acids E352-E168) bromodomain of BRD4 (Homo sapiens, UniProt O60885); test: TR-FRET bromodomain binding assay, BRD4 BD2; conditions: Ki calculated from IC50, probe Kd and probe concentration, read-out: TR-FRET Binding Ki: BRD4 (BDII_E352-M457)
T2 construct: protocol
In short: as §1

[3] = tested on: breast cancer cell line MX-1; test: MX-1 cell line proliferation assay (3-day); format: cell-based; conditions: MX-1 cells, Cell Titer Glo, read-out: Cellular proliferation: EC50
Procedure: The impact of compounds of the Examples on cancer cell proliferation was determined using the breast cancer cell line MX-1 (ATCC) in a 3-day proliferation assay. MX-1 cells were maintained in RPMI supplemented with 10% FBS at 37° C. and an atmosphere of 5% CO2. For compound testing, MX-1 cells were plated in 96-well black bottom plates at a density of 5000 cells/well in 90 μL of culture media and incubated at 37° overnight to allow cell adhesion and spreading. Compound dilution series were prepared in DMSO via a 3-fold serial dilution from 3 mM to 0.1 μM. The DMSO dilution series were then diluted 1:100 in phosphate buffered saline, and 10 μL of the resulted solution were added to the appropriate wells of the MX-1 cell plate. The final compound concentrations in the wells were 3, 1, 0.3, 0.1, 0.03, 0.01, 0.003, 0.001, 0.0003 and 0.0001 μM.
Luminescence readings from the Cell Titer Glo assay were normalized to the DMSO treated cells and analyzed using the GraphPad Prism software with sigmoidal curve fitting to obtain EC50s.

[4] = TR-FRET assay protocol (A-G, compound concentration range)
[5] = Homo sapiens, MX1, 72 h incubation
[6] = TR-FRET assay protocol (D, E or G) per compound
[7] = Homo sapiens, MX1, 72 hours with compound

| Ki [1, 4] | Ki [2, 4] | EC50 [3, 5] | Molecule | other results |
| --- | --- | --- | --- | --- |
| 0.00221 µM | 0.000609 µM | 0.0912 µM | CCS(=O)(=O)Nc1ccc(Oc2ccc(F)cc2F)c(-c2cn(C)c(=O)cc2-c2cnn(C)c2)c1 [Example 342, N-{4-(2,4-difluorophenoxy)-3-[1-methyl-4-(1-methyl-1H-pyrazol-4-yl)-6-oxo-1,6-dihydropyridin-3-yl]phenyl}ethanesulfonamide] |  |
| 0.0862 µM | 0.701 µM | > 3 µM | Cn1cc(-c2cc(NS(C)(=O)=O)ccc2OC2CCOC2)ccc1=O (stereo not drawn) [Example 249, N-[3-(1-methyl-6-oxo-1,6-dihydropyridin-3-yl)-4-(tetrahydrofuran-3-yloxy)phenyl]methanesulfonamide] |  |
| 0.126 µM | 0.0875 µM | 1.87 µM | Cn1nc(-c2ccccc2Oc2ccccc2)c(-c2ccc(CO)cc2)cc1=O [Example 79, 5-[4-(hydroxymethyl)phenyl]-2-methyl-6-(2-phenoxyphenyl)pyridazin-3(2H)-one] |  |
| 0.0257 µM | 0.0298 µM | 0.36 µM | CCOc1cc(=O)n(C)cc1-c1cc(NS(=O)(=O)Cc2ccccc2F)ccc1Oc1ccc(F)cc1F [Example 351, N-[4-(2,4-difluorophenoxy)-3-(4-ethoxy-1-methyl-6-oxo-1,6-dihydropyridin-3-yl)phenyl]-1-(2-fluorophenyl)methanesulfonamide] |  |
| 1.12 µM | 0.733 µM | > 3 µM | Cn1nc(-c2ccccc2Oc2ccccc2)c(C2=CCN(C(=O)OC(C)(C)C)CC2)cc1=O [Example 81, tert-butyl 4-[1-methyl-6-oxo-3-(2-phenoxyphenyl)-1,6-dihydropyridazin-4-yl]-3,6-dihydropyridine-1(2H)-carboxylate] |  |
| 0.253 µM | 0.109 µM | > 3 µM | Cn1cc(-c2cc(=O)n(C)nc2-c2ccccc2Oc2ccccc2)cn1 [Example 103, 2-methyl-5-(1-methyl-1H-pyrazol-4-yl)-6-(2-phenoxyphenyl)pyridazin-3(2H)-one] |  |
| 0.754 µM | 0.0552 µM | 1.33 µM | C=CC#Cc1ccccc1Oc1ccc(S(=O)(=O)CC)cc1-c1cn(C)c(=O)cc1O [Example 313, 5-{2-[2-(but-3-en-1-yn-1-yl)phenoxy]-5-(ethylsulfonyl)phenyl}-4-hydroxy-1-methylpyridin-2(1H)-one] |  |
| 0.0213 µM | 0.216 µM | 1.29 µM | Cn1cc(-c2cc(NS(C)(=O)=O)ccc2Oc2cccnc2)ccc1=O [Example 234, N-[3-(1-methyl-6-oxo-1,6-dihydropyridin-3-yl)-4-(pyridin-3-yloxy)phenyl]methanesulfonamide] |  |
| 0.0622 µM | 0.133 µM | 0.398 µM | Cn1nc(-c2ccccc2Oc2ccccc2)c(-c2ccc(CN3CCCC3)cc2)cc1=O [Example 71, 2-methyl-6-(2-phenoxyphenyl)-5-[4-(pyrrolidin-1-ylmethyl)phenyl]pyridazin-3(2H)-one] |  |
| 0.0478 µM | 0.101 µM | > 3 µM | CCS(=O)(=O)Nc1ccc(OC2CCC(F)(F)CC2)c(-c2c[nH]c(=O)c(C)c2)c1 [Example 267, N-{4-[(4,4-difluorocyclohexyl)oxy]-3-(5-methyl-6-oxo-1,6-dihydropyridin-3-yl)phenyl}ethanesulfonamide] |  |
| 0.0445 µM | 0.0677 µM | 0.372 µM | CC(C)N1CCN(c2ccc(-c3cc(=O)n(C)nc3-c3ccccc3Oc3ccccc3)cc2)CC1 [Example 180, 2-methyl-6-(2-phenoxyphenyl)-5-{4-[4-(propan-2-yl)piperazin-1-yl]phenyl}pyridazin-3(2H)-one] |  |
| 0.15 µM | 0.509 µM | 1.65 µM | Cn1cc(-c2ccccc2Oc2ccccc2)cc(Cl)c1=O [Example 281, 3-chloro-1-methyl-5-(2-phenoxyphenyl)pyridin-2(1H)-one] |  |
| 0.0278 µM | 0.101 µM | 0.357 µM | Cn1cc(-c2cc(NS(C)(=O)=O)ccc2Oc2ccc(F)cc2)ccc1=O [Example 232, N-[4-(4-fluorophenoxy)-3-(1-methyl-6-oxo-1,6-dihydropyridin-3-yl)phenyl]methanesulfonamide] |  |
| 0.00631 µM | 0.000639 µM | 0.077 µM | CCS(=O)(=O)Nc1ccc(Oc2ccc(F)cc2F)c(-c2cn(C)c(=O)cc2OC(C)C)c1 [Example 289, N-{4-(2,4-difluorophenoxy)-3-[1-methyl-6-oxo-4-(propan-2-yloxy)-1,6-dihydropyridin-3-yl]phenyl}ethanesulfonamide] |  |
| 0.138 µM | 0.181 µM | 1.28 µM | Cn1nc(-c2ccccc2Oc2ccccc2)c(-c2ccc(S(N)(=O)=O)cc2)cc1=O [Example 112, 4-[1-methyl-6-oxo-3-(2-phenoxyphenyl)-1,6-dihydropyridazin-4-yl]benzenesulfonamide] |  |
| 0.297 µM | 0.695 µM | > 3 µM | Cn1cc(-c2cc(NC(=O)CNC(=O)OC(C)(C)C)ccc2Oc2ccccc2)ccc1=O [Example 252, tert-butyl (2-{[3-(1-methyl-6-oxo-1,6-dihydropyridin-3-yl)-4-phenoxyphenyl]amino}-2-oxoethyl)carbamate] |  |
|  |  |  | CCOc1cc(=O)n(C)cc1-c1cc(NS(=O)(=O)CC)ccc1OC1CCC(F)(F)CC1 [Example 385, N-{4-[(4,4-difluorocyclohexyl)oxy]-3-(4-ethoxy-1-methyl-6-oxo-1,6-dihydropyridin-3-yl)phenyl}ethanesulfonamide] | Ki [1, 6]: 0.0553 µM; Ki [2, 6]: 0.14 µM; EC50 [3, 7]: 0.254 µM |
| 0.0844 µM | 0.153 µM | 0.878 µM | CC(C)S(=O)(=O)c1ccc(Oc2ccc(F)cc2F)c(-c2ccc(=O)n(C)c2)c1 [Example 364, 5-[2-(2,4-difluorophenoxy)-5-(propan-2-ylsulfonyl)phenyl]-1-methylpyridin-2(1H)-one] |  |
| 1.73 µM | 1.79 µM | 10 µM | COc1cc(=O)n(C)nc1-c1ccccc1Oc1ccc(Cl)cc1 [Example 37, 6-[2-(4-chlorophenoxy)phenyl]-5-methoxy-2-methylpyridazin-3(2H)-one] |  |
|  |  |  | CCOc1cc(=O)n(C)cc1-c1cc(S(=O)(=O)N2CCc3ccccc32)ccc1OCC1CC1 [Example 397, 5-[2-(cyclopropylmethoxy)-5-(2,3-dihydro-1H-indol-1-ylsulfonyl)phenyl]-4-ethoxy-1-methylpyridin-2(1H)-one] | Ki [1, 6]: 0.0752 µM; Ki [2, 6]: 0.00884 µM; EC50 [3, 7]: 0.0866 µM |
| 0.142 µM | 0.154 µM | > 3 µM | Cn1cc(-c2cc(NS(=O)(=O)c3c[nH]cn3)ccc2Oc2ccccc2)ccc1=O [Example 228, N-[3-(1-methyl-6-oxo-1,6-dihydropyridin-3-yl)-4-phenoxyphenyl]-1H-imidazole-4-sulfonamide] |  |
| 0.598 µM | 0.25 µM | 1.86 µM | COc1cc(-c2cc(=O)n(C)nc2-c2ccccc2Oc2ccccc2)ccn1 [Example 57, 5-(2-methoxypyridin-4-yl)-2-methyl-6-(2-phenoxyphenyl)pyridazin-3(2H)-one] |  |
|  |  |  | CCS(=O)(=O)c1ccc(Oc2ccc(F)cc2F)c(-c2cc(=O)n(C)cc2OCC(F)(F)F)c1 [Example 398, 4-[2-(2,4-difluorophenoxy)-5-(ethylsulfonyl)phenyl]-1-methyl-5-(2,2,2-trifluoroethoxy)pyridin-2(1H)-one] | EC50 ([3]; 72 hours with compound): 0.45 µM |
|  |  |  | N-{4-(4-cyanophenoxy)-3-[1-methyl-6-oxo-4-(2,2,2-trifluoroethoxy)-1,6-dihydropyridin-3-yl]phenyl}ethanesulfonamide [Example 374] | EC50 ([3]; 72 hours with compound): 0.0761 µM |
|  | 0.0465 µM | 0.42 µM | COc1cc(=O)n(C)nc1-c1cc(NS(=O)(=O)N(C)C)ccc1Oc1ccccc1 [Example 31, N′-[3-(4-methoxy-1-methyl-6-oxo-1,6-dihydropyridazin-3-yl)-4-phenoxyphenyl]-N,N-dimethylsulfuric diamide] |  |
|  |  |  | 1-(2-chloro-5-fluorophenyl)-N-[4-(2,4-difluorophenoxy)-3-(4-ethoxy-1-methyl-6-oxo-1,6-dihydropyridin-3-yl)phenyl]methanesulfonamide [Example 350] | EC50 ([3]; 72 h incubation): 1 µM |
|  |  |  | N-[4-(2,4-difluorophenoxy)-3-(4-ethoxy-1-methyl-6-oxo-1,6-dihydropyridin-3-yl)phenyl]-1-phenylmethanesulfonamide [Example 311] | EC50 ([3]; 72 h incubation): 1 µM |
